Experimental data published in US20220000841A1, “INHIBITORS OF METALLO-BETA-LACTAMASES” (CENTRE NATIONAL DE LA RECHERCHE SCIENTIFIQUE, priority 2018, published 2022).
pKi: −log10 of the molar value. Like-named read-outs stand apart in the source and are kept apart here.

Experiments:
Format in all cases: biochemical
VIM-2 = VIM-2 (Escherichia coli, UniProt Q5U7L7); assay: Enzymatic assay for determination of inhibition constants, reporter substrate method, purified VIM-2;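 further: purified VIM-2 hydrolysing a reporter substrate (imipenem, meropenem, cefotaxime or nitrocefin), reaction rate read as absorbance change, HEPES 50 mM at pH 7.5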
NDM-1 = NDM-1 (Klebsiella pneumoniae, UniProt C7C422); assay: Enzymatic assay for determination of inhibition constants, reporter substrate method, purified NDM-1; details: isolated MBL, competitive inhibition model;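 further: purified enzyme activity followed as absorbance change from reporter substrate hydrolysis on a UV-Vis spectrophotometer or plate reader, 50 mM HEPES pH 7.5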
Method: (§1) The reaction rate was measured as the variation of absorbance observed upon substrate hydrolysis in a UV-Vis spectrophotometer or microplate reader at a wavelength of 300 nm (imipenem, meropenem), 260 nm (cefotaxime) or 482 nm (nitrocefin) in 50 mM HEPES buffer (pH 7.5) and in the presence of a purified MBL enzyme (such as VIM-1, VIM-2, VIM-4, NDM-1 and IMP-1, at a final concentration ranging 1-70 nM).
(§2) The inhibition constants (Ki) were determined on the basis of a model of competitive inhibition by analyzing the dependence of the ratio v0/vi (v0, hydrolysis velocity in the absence of inhibitor; vi, hydrolysis velocity in the presence of inhibitor) as a function of [I] as already described [Docquier J. D., Lamotte-Brasseur J., Galleni M., Amicosante G., Frère J. M., Rossolini G. M. (2003) J. Antimicrob. […] The slope of the plot of v0/vi vs [I], which corresponds to Km^S/(Km^S+[S])Ki (where Km^S is the Km value of the reporter substrate and [S] its concentration in the reaction mixture) and allowed the calculation of the Ki value. Alternatively, a Dixon plot analysis was carried out, by measuring the initial hydrolysis rates in the presence of variable concentrations of inhibitor and substrate.

VIM-1 = VIM-1 (Pseudomonas aeruginosa, UniProt A0A0F7KYQ8); assay: Enzymatic assay for determination of inhibition constants, reporter substrate method, purified VIM-1; details: isolated MBL, competitive inhibition model;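 further: initial hydrolysis rates of a reporter β-lactam (imipenem, meropenem, cefotaxime or nitrocefin) followed by absorbance change, purified enzyme at 1–70 nM in 50 mM HEPES pH 7.5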
IMP-1 = IMP-1 (Serratia marcescens, UniProt P52699); assay: Enzymatic assay for determination of inhibition constants, reporter substrate method, purified IMP-1; details: for pKi: isolated MBL, competitive inhibition model; for % inhibition IMP-1: at 200 μM (maximal tested concentration);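 on all read-outs here: purified IMP-1 (1-70 nM) hydrolysing a reporter substrate, initial rates followed as absorbance change at 260, 300 or 482 nm in 50 mM HEPES pH 7.5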
VIM-4 = VIM-4 (Pseudomonas aeruginosa, UniProt Q8KRJ3); assay: Enzymatic assay for determination of inhibition constants, reporter substrate method, purified VIM-4; details: at 100 μM (maximal tested concentration);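 further: purified VIM-4 (1-70 nM) in 50 mM HEPES pH 7.5, reporter substrate hydrolysis rate tracked by absorbance change (nitrocefin 482 nm, imipenem or meropenem 300 nm, cefotaxime 260 nm)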
Method: as §1, §2

[1] = as listed in Table 2, read-out: Ki on VIM-2
[2] = isolated MBL, competitive inhibition model, read-out: Ki VIM-2
[3] = at 100 μM (maximal tested concentration)

Chain of IMP-1 (P52699 19-246, looked up, species assumed): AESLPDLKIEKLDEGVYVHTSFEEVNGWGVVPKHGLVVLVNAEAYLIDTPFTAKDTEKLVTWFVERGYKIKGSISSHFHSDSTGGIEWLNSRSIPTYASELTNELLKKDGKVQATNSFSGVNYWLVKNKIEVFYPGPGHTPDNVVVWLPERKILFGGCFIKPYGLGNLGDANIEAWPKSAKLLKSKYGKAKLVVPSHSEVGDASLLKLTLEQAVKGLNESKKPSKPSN
Chain of NDM-1 (C7C422 29-270, looked up, species assumed): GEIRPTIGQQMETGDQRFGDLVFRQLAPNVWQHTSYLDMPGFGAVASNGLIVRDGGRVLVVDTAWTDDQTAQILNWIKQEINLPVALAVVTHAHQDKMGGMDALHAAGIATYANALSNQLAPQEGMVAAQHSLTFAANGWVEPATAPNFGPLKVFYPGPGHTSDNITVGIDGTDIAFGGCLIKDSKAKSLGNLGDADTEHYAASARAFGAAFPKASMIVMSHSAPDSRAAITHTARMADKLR

pKi (VIM-2; [1])	pKi (VIM-2; [2])	pKi (VIM-1)	SMILES	pKi (NDM-1)	pKi (IMP-1)	% inhibition IMP-1 (IMP-1)	% inhibition VIM-2 (VIM-2; at 200 μM (maximal tested concentration))	% inhibition VIM-4 (VIM-4)	% inhibition VIM-2 (VIM-2; [3])
5.00 to 6.00	5.00 to 6.00	< 4.00	O=C(O)CCCn1c(-c2ccccc2)n[nH]c1=S [Compound 2, 4-(3-phenyl-5-sulfanylidene-4,5-dihydro-1H-1,2,4-triazol-4-yl)butanoic acid]	< 4.00	< 4.00				
5.00 to 6.00	5.00 to 6.00	< 4.00	O=C(O)c1ccccc1CNn1c(-c2ccccc2)n[nH]c1=S [Compound 5, 2-{[(3-phenyl-5-sulfanylidene-4,5-dihydro-1H-1,2,4-triazol-4-yl)amino]methyl}benzoic acid]	< 4.00	< 4.00				
	5.00 to 6.00	> 6.00	COc1ccc(O)c(-c2n[nH]c(=S)n2Cc2ccccc2)c1 [Compound 7, 4-benzyl-3-(2-hydroxy-5-methoxyphenyl)-4,5-dihydro-1H-1,2,4-triazole-5-thione]	< 4.00	< 4.00				
	< 4.00		Sc1nnc(-c2ccccc2)n1Cc1ccccc1 [Compound 9, 4-benzyl-3-phenyl-4,5-dihydro-1H-1,2,4-triazole-5-thione]	< 4.00	5.00 to 6.00				
	5.00 to 6.00	5.00 to 6.00	COc1ccc(O)c(-c2n[nH]c(=S)n2CCc2ccccc2)c1 [Compound 10, 3-(2-hydroxy-5-methoxyphenyl)-4-(2-phenylethyl)-4,5-dihydro-1H-1,2,4-triazole-5-thione]	5.00 to 6.00	4.00 to 5.00				
			S=c1[nH]nc(-c2ccccc2)n1[C@@H]1C[C@H]1c1ccccc1 [Compound 20, 3-phenyl-4-[(1R,2S)-2-phenylcyclopropyl]-4,5-dihydro-1H-1,2,4-triazole-5-thione]	4.00 to 5.00	< 4.00		70% at 200 μM		
	> 6.00	< 4.00	O=C(O)CCCn1c(-c2cccc(-c3ccccc3)c2)n[nH]c1=S [Compound 38, 5-(3-Biphenyl)-4-[3-carboxypropanyl]-1,2,4-triazole-3-thione]	< 4.00	< 4.00				
	> 6.00	< 4.00	O=C(O)c1ccccc1CCn1c(-c2ccc(OCc3ccccc3)cc2)n[nH]c1=S [Compound 40, 5-(4-Benzyloxyphenyl)-4-[2-(2-carboxyphenyl)ethyl]-1,2,4-triazole-3-thione]	< 4.00	< 4.00				
	< 4.00	< 4.00	Oc1ccc(CCn2c(-c3ccccc3)n[nH]c2=S)c(O)c1 [Compound 41, 4-[2-(2,4-Dihydroxyphenyl)ethyl]-5-phenyl-1,2,4-triazole-3-thione]	4.00 to 5.00	4.00 to 5.00				
	< 4.00	< 4.00	Oc1ccc(CCn2c(-c3ccccc3-c3ccccc3)n[nH]c2=S)c(O)c1 [Compound 43, 5-(2-Biphenyl)-4-[2-(2,4-dihydroxyphenyl)ethyl]-1,2,4-triazole-3-thione]	4.00 to 5.00	< 4.00				
	< 4.00	< 4.00	O=C(O)CC(Cn1c(-c2ccccc2)n[nH]c1=S)c1ccccc1 (stereo not drawn) [Compound 46, 3-Phenyl-4-(3-phenyl-5-thioxo-1,4-dihydro-1,2,4-triazol-4-yl)butyric acid]	< 4.00	< 4.00				
			O=C(O)c1ccccc1CNn1c(-c2cccc(-c3ccccc3)c2)n[nH]c1=S [Compound 51, o-{[3-(3-Biphenylyl)-5-thioxo-1,4-dihydro-1,2,4-triazol-4-ylamino]methyl}benzoic acid]	< 4.00	< 4.00				75% at 100 μM
			O=C(O)c1cccc(Cn2c(-c3ccccc3)n[nH]c2=S)c1 [Compound 52, m-[(3-Phenyl-5-thioxo-1,4-dihydro-1,2,4-triazol-4-yl)methyl]benzoic acid]	< 4.00	< 4.00				84% at 100 μM
			O=C(O)c1cc(O)ccc1CCn1c(-c2ccccc2)n[nH]c1=S [Compound 53, 5-Hydroxy-2-[2-(3-phenyl-5-thioxo-1,4-dihydro-1,2,4-triazol-4-yl)ethyl]benzoic acid]	< 4.00	< 4.00				90% at 100 μM
			O=C(O)c1ccccc1CCn1c(-c2ccc3ncccc3c2)n[nH]c1=S [Compound 56, 2-{2-[3-(Quinolin-6-yl)-5-sulfanylidene-4,5-dihydro-1H-1,2,4-triazol-4-yl]ethyl}benzoic acid]	< 4.00	< 4.00				85% at 100 μM
			O=C(O)c1ccccc1CCn1c(-c2ccsc2)n[nH]c1=S [Compound 58, o-{2-[3-(3-Thienyl)-5-thioxo-1,4-dihydro-1,2,4-triazol-4-yl]ethyl}benzoic acid]	< 4.00	< 4.00				85% at 100 μM
			O=C(O)CCCCCCCn1c(-c2ccccc2)n[nH]c1=S [Compound 59, 8-(3-Phenyl-5-thioxo-1,4-dihydro-1,2,4-triazol-4-yl)octanoic acid]	< 4.00	< 4.00				90% at 100 μM
			O=C(O)C(SCCn1c(-c2ccccc2)n[nH]c1=S)c1ccccc1 (stereo not drawn) [Compound 60, Phenyl[2-(3-phenyl-5-thioxo-1,4-dihydro-1,2,4-triazol-4-yl)ethylthio]acetic acid]	< 4.00	< 4.00				96% at 100 μM
			Nc1ccc(CCn2c(-c3ccccc3)n[nH]c2=S)c(C(=O)O)c1 [Compound 61, 5-Amino-2-[2-(3-phenyl-5-thioxo-1,4-dihydro-1,2,4-triazol-4-yl)ethyl]benzoic acid]	< 4.00	< 4.00				75% at 100 μM
			O=C(O)CSCCn1c(-c2ccccc2)n[nH]c1=S [Compound 65, [2-(3-Phenyl-5-thioxo-1,4-dihydro-1,2,4-triazol-4-yl)ethylthio]acetic acid]	< 4.00	< 4.00				90% at 100 μM
5.00 to 6.00			Cc1ccccc1-c1n[nH]c(=S)n1/N=C/c1ccccc1C(=O)O [II, reference compound]						

SMILES	pKi (VIM-2; [1])	pKi (VIM-2; [2])	pKi (VIM-1)	pKi (NDM-1)	pKi (IMP-1)	% inhibition IMP-1 (IMP-1)	% inhibition VIM-2 (VIM-2; at 200 μM (maximal tested concentration))	% inhibition VIM-4 (VIM-4)	% inhibition VIM-2 (VIM-2; [3])
S=c1[nH]nc(-c2ccccc2)n1CCCc1ccccc1 [Compound 8, 3-phenyl-4-(3-phenylpropyl)-4,5-dihydro-1H-1,2,4-triazole-5-thione]		< 4.00		< 4.00		70% at 200 μM			
O=C(O)c1ccccc1CCn1c(-c2ccc3ccccc3n2)n[nH]c1=S [Compound 36, 2-{2-[3-(Quinolin-2-yl)-5-sulfanylidene-4,5-dihydro-1H-1,2,4-triazol-4-yl]ethyl}benzoic acid]		< 4.00		< 4.00	< 4.00			85% at 100 μM	
Cn1cccc1-c1n[nH]c(=S)n1CCc1ccccc1C(=O)O [Compound 44]		> 6.00		< 4.00	< 4.00			80% at 100 μM	
Cn1cccc1-c1n[nH]c(=S)n1CCCC(=O)O [Compound 48, 4-[3-(1-Methyl-1H-pyrrol-2-yl)-5-thioxo-1,4-dihydro-1,2,4-triazol-4-yl]butyric acid]		< 4.00		< 4.00	< 4.00			75% at 100 μM	
S=c1[nH]nc(-c2ccccc2)n1CCc1ccc(OCc2ccccc2)cc1 [Compound 54, 4-[4-(Benzyloxy)phenylethyl]-5-phenyl-1,2,4-triazole-3-thione]		4.00 to 5.00		< 4.00		60% at 200 μM			
